Experimental data taken from PubChem BioAssay AID1963856 (Molecular Pharmacology Branch, DTP, NCI, 2024).

System: LG0567-F671-PDC KRAS tumor spheroid viability
Test: Anticancer human tumor LG0567-F671-PDC patient-derived lung adenocarcinoma cell line growth inhibition [KRAS2]
Details: spheroids with HUVEC and MSC; for viability, T/C: stronger effect = lower value; active = viability on the fitted dose curve at most 10% of control; inactive = the rest
In short: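 Combination screen of spheroid viability in tumor-cell co-cultures with endothelial (HUVEC) and mesenchymal stem cell stroma. Each agent was tested in half-log dilutions, topping at clinical Cmax or at 10 microM without a known Cmax.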

[1] = curve of first compound, second compound 0.1 µM
[2] = curve of first compound, second compound 0.316 µM
[3] = curve of first compound, second compound 1 µM
[4] = curve of first compound, second compound 3.16 µM
[5] = second compound 0.1 µM, first compound 0.0316 µM
[6] = second compound 0.1 µM, first compound 0.1 µM
[7] = second compound 0.1 µM, first compound 0.316 µM
[8] = second compound 0.1 µM, first compound 1 µM
[9] = second compound 0.1 µM, first compound 3.16 µM
[10] = second compound 0.1 µM, first compound 10 µM
[11] = second compound 0.316 µM, first compound 0.0316 µM
[12] = second compound 0.316 µM, first compound 0.1 µM
[13] = second compound 0.316 µM, first compound 0.316 µM
[14] = second compound 0.316 µM, first compound 1 µM
[15] = second compound 0.316 µM, first compound 3.16 µM
[16] = second compound 0.316 µM, first compound 10 µM
[17] = second compound 1 µM, first compound 0.0316 µM
[18] = second compound 1 µM, first compound 0.1 µM
[19] = second compound 1 µM, first compound 0.316 µM
[20] = second compound 1 µM, first compound 1 µM
[21] = second compound 1 µM, first compound 3.16 µM
[22] = second compound 1 µM, first compound 10 µM
[23] = second compound 3.16 µM, first compound 0.0316 µM
[24] = second compound 3.16 µM, first compound 0.1 µM
[25] = second compound 3.16 µM, first compound 0.316 µM
[26] = second compound 3.16 µM, first compound 1 µM
[27] = second compound 3.16 µM, first compound 3.16 µM
[28] = second compound 3.16 µM, first compound 10 µM
[29] = curve of first compound, second compound 10 µM
[30] = second compound 0.1 µM, first compound 0.01 µM
[31] = second compound 0.316 µM, first compound 0.01 µM
[32] = second compound 1 µM, first compound 0.01 µM
[33] = second compound 3.16 µM, first compound 0.01 µM
[34] = second compound 10 µM, first compound 0.01 µM
[35] = second compound 10 µM, first compound 0.0316 µM
[36] = second compound 10 µM, first compound 0.1 µM
[37] = second compound 10 µM, first compound 0.316 µM
[38] = second compound 10 µM, first compound 1 µM
[39] = second compound 10 µM, first compound 3.16 µM
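Note: drug exposure lasted seven days after spheroids formed for three days.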
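Throughout, for viability, T/C: 100% = DMSO vehicle control viability.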

CC1OCC2(CCN(c3cnc(Sc4ccnc(N)c4Cl)c(N)n3)CC2)C1N (stereo not given) + C=CC(=O)N1CCN(c2nc(OCC3CCCN3C)nc3c2CCN(c2cccc4cccc(C)c24)C3)CC1CC#N
active: viability, T/C (second compound 0.0316 µM, first compound 3.16 µM) 5.27% | viability, T/C (second compound 0.0316 µM, first compound 10 µM) 4.04% | viability, T/C [8] 7.14% | viability, T/C [9] 3.83% | viability, T/C [10] 4.19% | viability, T/C [14] 10% | viability, T/C [15] 5.4% | viability, T/C [16] 3.32% | viability, T/C [20] 7.73% | viability, T/C [21] 5.45% | viability, T/C [22] 6.7% | viability, T/C [26] 8.14% | viability, T/C [27] 5.63% | viability, T/C [28] 4.39%
inactive: viability, T/C (second compound 0.0316 µM, first compound 0.0316 µM) 28.3% | viability, T/C (second compound 0.0316 µM, first compound 0.1 µM) 18.1% | viability, T/C (second compound 0.0316 µM, first compound 0.316 µM) 16.3% | viability, T/C (second compound 0.0316 µM, first compound 1 µM) 11.3% | viability, T/C [5] 24.7% | viability, T/C [6] 14.6% | viability, T/C [7] 13.5% | viability, T/C [11] 26.3% | viability, T/C [12] 17.8% | viability, T/C [13] 12.3% | viability, T/C [17] 20.1% | viability, T/C [18] 15.6% | viability, T/C [19] 11.5% | viability, T/C [23] 29.1% | viability, T/C [24] 21.1% | viability, T/C [25] 17.2%
< 31.6 nM: IC50 (curve of first compound, second compound 0.0316 µM) | IC50 [1] | IC50 [2] | IC50 [3] | IC50 [4]

CC1COCCN1c1cc(-c2ccnn2C)c2ccnc(-c3ccn[nH]3)c2n1 (stereo not given) + COc1cc2nc(C)nc(NC(C)c3cc(N)cc(C(F)(F)F)c3)c2cc1OC1CCOC1
46.1 nM: IC50 [29]
67.7 nM: IC50 [3]
219 nM: IC50 [1]
inactive: viability, T/C [30] 91.9% | viability, T/C [5] 60.8% | viability, T/C [6] 50.1% | viability, T/C [7] 56.2% | viability, T/C [8] 41.2% | viability, T/C [9] 15.7% | viability, T/C [31] 84% | viability, T/C [11] 70.7% | viability, T/C [12] 46.7% | viability, T/C [13] 23.8% | viability, T/C [14] 15.3% | viability, T/C [15] 36.7% | viability, T/C [32] 79.3% | viability, T/C [17] 59.6% | viability, T/C [18] 44.2% | viability, T/C [19] 36.2% | viability, T/C [20] 16.9% | viability, T/C [21] 18.4% | viability, T/C [33] 55.5% | viability, T/C [23] 37.9% | viability, T/C [24] 21.8% | viability, T/C [25] 10.1% | viability, T/C [26] 4.98% | viability, T/C [27] 24.5% | viability, T/C [34] 53.2% | viability, T/C [35] 54.3% | viability, T/C [36] 43.6% | viability, T/C [37] 29.6% | viability, T/C [38] 32.2% | viability, T/C [39] 22.1%
14.4 nM: IC50 [4]
79.1 nM: IC50 [2]

CC(=O)Nc1cccc(-n2c(=O)n(C3CC3)c(=O)c3c(Nc4ccc(I)cc4F)n(C)c(=O)c(C)c32)c1 + CNCc1ccccc1-c1csc(C(C)Nc2nc(C)nc3cc(OC)c(OC)cc23)c1
inactive: viability, T/C (second compound 0.1 µM, first compound 0.0001 µM) 73.6% | viability, T/C (second compound 0.1 µM, first compound 0.000316 µM) 68.3% | viability, T/C (second compound 0.1 µM, first compound 0.001 µM) 49.1% | viability, T/C (second compound 0.1 µM, first compound 0.00316 µM) 52.5% | viability, T/C [30] 29.4% | viability, T/C [5] 11.6% | viability, T/C (second compound 0.316 µM, first compound 0.0001 µM) 65.1% | viability, T/C (second compound 0.316 µM, first compound 0.000316 µM) 54.7% | viability, T/C (second compound 0.316 µM, first compound 0.001 µM) 47.8% | viability, T/C (second compound 0.316 µM, first compound 0.00316 µM) 33.4% | viability, T/C [31] 39% | viability, T/C [11] 8.76% | viability, T/C (second compound 1 µM, first compound 0.0001 µM) 61.8% | viability, T/C (second compound 1 µM, first compound 0.000316 µM) 63.2% | viability, T/C (second compound 1 µM, first compound 0.001 µM) 46.9% | viability, T/C (second compound 1 µM, first compound 0.00316 µM) 26.8% | viability, T/C [32] 17.9% | viability, T/C [17] 8.07%
2.08 nM: IC50 [1]
< 0.1 nM: IC50 [4] | IC50 [29]
active: viability, T/C (second compound 3.16 µM, first compound 0.0001 µM) 2.63% | viability, T/C (second compound 3.16 µM, first compound 0.000316 µM) 1.14% | viability, T/C (second compound 3.16 µM, first compound 0.001 µM) 0.22% | viability, T/C (second compound 3.16 µM, first compound 0.00316 µM) 0.57% | viability, T/C [33] 0.29% | viability, T/C [23] 0.3% | viability, T/C (second compound 10 µM, first compound 0.0001 µM) 1.49% | viability, T/C (second compound 10 µM, first compound 0.000316 µM) 0.17% | viability, T/C (second compound 10 µM, first compound 0.001 µM) 0.53% | viability, T/C (second compound 10 µM, first compound 0.00316 µM) 0.14% | viability, T/C [34] 0.14% | viability, T/C [35] 0.24%
0.813 nM: IC50 [3]
0.799 nM: IC50 [2]

COc1cc(Nc2ncc3c(n2)-c2ccc(Cl)cc2C(c2c(F)cccc2OC)=NC3)ccc1C(=O)O + C=CC(=O)N1CCN(c2nc(=O)n(-c3c(C)ccnc3C(C)C)c3nc(-c4c(O)cccc4F)c(F)cc23)C(C)C1
inactive: viability, T/C [5] 25.7% | viability, T/C [6] 24.3% | viability, T/C [7] 25.9% | viability, T/C [8] 24.3% | viability, T/C [9] 22.8% | viability, T/C [10] 21.6% | viability, T/C [11] 12.2% | viability, T/C [12] 11.9% | viability, T/C [13] 11.1% | viability, T/C [14] 11.3% | viability, T/C [15] 11.4% | viability, T/C [16] 9.24% | viability, T/C [17] 27.2% | viability, T/C [18] 23.6% | viability, T/C [19] 23.5% | viability, T/C [20] 24.6% | viability, T/C [21] 25.7% | viability, T/C [22] 21.6% | viability, T/C [23] 23.8% | viability, T/C [24] 20.6% | viability, T/C [25] 20.2% | viability, T/C [26] 22.2% | viability, T/C [27] 21% | viability, T/C [28] 20.6% | viability, T/C [35] 23.3% | viability, T/C [36] 23.5% | viability, T/C [37] 23.8% | viability, T/C [38] 24.4% | viability, T/C [39] 22.5% | viability, T/C (second compound 10 µM, first compound 10 µM) 29.5%
< 31.6 nM: IC50 [1] | IC50 [2] | IC50 [3] | IC50 [4] | IC50 [29]

COc1cc2nccc(Oc3ccc(NC(=O)C4(C(=O)Nc5ccc(F)cc5)CC4)cc3)c2cc1OC
> 10000 nM: IC50 (curve of compound)
inactive: viability, T/C (compound 0.0316 µM) 92% [middle of 5 runs] | viability, T/C (compound 0.1 µM) 78.3% [middle of 5 runs] | viability, T/C (compound 0.316 µM) 75.1% [middle of 5 runs] | viability, T/C (compound 1 µM) 67% [middle of 5 runs]
